{"source": "patent US9290486B1", "about": "“Compositions and methods for the treatment of epilepsy” (CELLIX BIO PRIVATE LIMITED, priority 2014, dated 2016)", "test": "Blood and cerebrospinal fluid pharmacokinetics after acute intraperitoneal administration in freely moving rats", "assay_type": "in vivo", "conditions": "for serum and CSF concentrations versus dose: intraperitoneal, 20, 40 and 80 mg/kg; for Elimination half-life (t1/2)-CSF (Mean) / penetration of the blood brain barrier / Elimination half-life (t1/2)-Serum (Mean): intraperitoneal; for penetration of the blood brain barrier: appearance in serum and CSF; for Tmax: rat, ip, acute intraperitoneal, 20, 40 and 80 mg/kg", "protocol": "Blood and Cerebrospinal Fluid Pharmacokinetics in Comparison of the Levetiracetam and Formula II (2-1) in Rats\nThe temporal pharmacokinetic interrelationship of levetiracetam and Formula II (2-1) in blood and cerebrospinal fluid (CSF) was studied after acute intraperitoneal administration of levetiracetam and Formula II (2-1), (20, 40 and 80 mg/kg), using an animal model that permits concurrent blood and CSF sampling in freely moving rats.", "key": {"[1]": {"conditions": "cerebrospinal fluid, read-out: Tmax mean range, CSF"}, "[2]": {"conditions": "serum, read-out: time to maximum concentration (Tmax) mean range, serum"}}, "note": "Like-named read-outs stand apart in the source and are kept apart here.", "data": [{"smiles": "CC[C@@H](C(=O)NC(=O)OC(C)OC(=O)CCCC[C@@H]1CCSS1)N1CCCC1=O", "note": "(stereo partly drawn) [Formula II (2-1)]", "values": [{"measurement": "serum and CSF concentrations versus dose", "result": "rose essentially linearly and dose-dependently"}, {"measurement": "Elimination half-life (t1/2)-CSF (Mean)", "result": "4.8 to 5.6", "unit": "h"}, {"measurement": "penetration of the blood brain barrier", "result": "ready penetration of the blood brain barrier"}, {"measurement": "Elimination half-life (t1/2)-Serum (Mean)", "setting": "serum", "result": "2.3 to 3.4", "unit": "h"}, {"measurement": "Tmax", "setting": "[1]", "result": "2.14 to 2.83", "unit": "h"}, {"measurement": "Tmax", "setting": "[2]", "result": "0.47 to 0.89", "unit": "h"}]}, {"smiles": "CC[C@@H](C(N)=O)N1CCCC1=O", "note": "[levetiracetam]", "values": [{"measurement": "serum and CSF concentrations versus dose", "result": "rose essentially linearly and dose-dependently"}, {"measurement": "Elimination half-life (t1/2)-CSF (Mean)", "result": "4.4 to 4.9", "unit": "h"}, {"measurement": "penetration of the blood brain barrier", "result": "ready penetration of the blood brain barrier"}, {"measurement": "Elimination half-life (t1/2)-Serum (Mean)", "setting": "serum", "result": "1.8 to 2.8", "unit": "h"}, {"measurement": "Tmax", "setting": "[1]", "result": "1.33 to 1.92", "unit": "h"}, {"measurement": "Tmax", "setting": "[2]", "result": "0.25 to 0.5", "unit": "h"}]}]}
